# Data taken from the supplement of paper PMC10307832.
# What was measured:
# Experiment in all cases: relative viability (nuclei count vs DMSO), 5 days (fraction); higher = more cells survive
# BGJ398 + Tozasertib = compound: CCN1CCN(c2ccc(Nc3cc(N(C)C(=O)Nc4c(Cl)c(OC)cc(OC)c4Cl)ncn3)cc2)CC1 [BGJ398] + Cc1cc(Nc2cc(N3CCN(C)CC3)nc(Sc3ccc(NC(=O)C4CC4)cc3)n2)n[nH]1 [Tozasertib] (partner 0.1 µM)
# Summary of the method: (§1)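 Lung cancer cell lines, seeded in 1536-well plates, were treated the following day by pin tool with a single drug or with five library-drug doses (not always all listed) in √10 steps on top of a fixed anchor-drug dose. Cells were fixed and nuclei stained in one step after 5 days, and nuclei were counted. Relative viability is the nuclei count for treated wells divided by that for vehicle wells, reported as medians of duplicate plates.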
# [1] = compound: C1=CC2=NC=CN=C2C=C1/C=C/3\C(=O)NC(=O)S3 + CC(C)C[C@H](NC(=O)[C@H](Cc1ccccc1)NC(=O)c1cnccn1)B(O)O [Bortezomib] (partner 0.002 µM)
# Summary of the method: as §1
# [2] = compound: C1=CC2=NC=CN=C2C=C1/C=C/3\C(=O)NC(=O)S3 + CC(=O)Nc1cccc(-n2c(=O)n(C3CC3)c(=O)c3c(Nc4ccc(I)cc4F)n(C)c(=O)c(C)c32)c1 [Trametinib] (partner 0.02 µM)
# Summary of the method: as §1
# BGJ398 + Navitoclax = compound: CCN1CCN(c2ccc(Nc3cc(N(C)C(=O)Nc4c(Cl)c(OC)cc(OC)c4Cl)ncn3)cc2)CC1 [BGJ398] + CC1(C)CCC(c2ccc(Cl)cc2)=C(CN2CCN(c3ccc(C(=O)NS(=O)(=O)c4ccc(N[C@H](CCN5CCOCC5)CSc5ccccc5)c(S(=O)(=O)C(F)(F)F)c4)cc3)CC2)C1 [Navitoclax] (partner 0.5 µM)
# Summary of the method: as §1
cell line,measurement,setting,value
UMC-11,relative viability,BGJ398 + Tozasertib; first compound 0.01 µM,0.2
same,relative viability,BGJ398 + Tozasertib; first compound 0.03162 µM,0.202
same,relative viability,BGJ398 + Tozasertib; first compound 0.1 µM,0.207
same,relative viability,BGJ398 + Tozasertib; first compound 0.3162 µM,0.206
same,relative viability,BGJ398 + Tozasertib; first compound 1 µM,0.235
same,relative viability,[1]; first compound 0.02 µM,0.869
same,relative viability,[1]; first compound 0.06325 µM,0.965
same,relative viability,[1]; first compound 0.2 µM,0.523
same,relative viability,[1]; first compound 0.6325 µM,0.591
same,relative viability,[1]; first compound 2 µM,0.997
same,relative viability,[2]; first compound 0.02 µM,0.697
same,relative viability,[2]; first compound 0.06325 µM,0.792
same,relative viability,[2]; first compound 0.2 µM,0.75
same,relative viability,[2]; first compound 0.6325 µM,0.663
same,relative viability,[2]; first compound 2 µM,0.81
same,relative viability,BGJ398 + Navitoclax; first compound 0.01 µM,0.343
same,relative viability,BGJ398 + Navitoclax; first compound 0.03162 µM,0.336
same,relative viability,BGJ398 + Navitoclax; first compound 0.1 µM,0.314
same,relative viability,BGJ398 + Navitoclax; first compound 0.3162 µM,0.382
same,relative viability,BGJ398 + Navitoclax; first compound 1 µM,0.307
